Measurements from PubChem BioAssay (NCI).
“And” between values parts separate entries of the source, which are not always exact repeats. Equal entries are not always repeated.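 Values below derive from 48-hour exposures of cells grown in 96-well plates, with endpoints linearly interpolated between the two concentrations bracketing the appropriate inhibition level. Abbreviation: GI50, concentration required for 50% inhibition of growth. The concentration for full growth arrest is given as TGI.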

What was measured:
Test in all cases: growth of human tumour cells (NCI), 48 h
UACC-62 melanoma = test system: UACC-62 melanoma
MOLT-4 leukemia = test system: MOLT-4 leukemia
RXF 393 renal = test system: RXF 393 renal
NCI-H460 lung = test system: NCI-H460 lung
HCT-15 colon = test system: HCT-15 colon
HL-60(TB) leukemia = test system: HL-60(TB) leukemia
ACHN renal = test system: ACHN renal
BT-549 breast = test system: BT-549 breast
MDA-MB-435 = test system: MDA-MB-435
SK-MEL-2 melanoma = test system: SK-MEL-2 melanoma

Row | SMILES | GI50 (UACC-62 melanoma) | TGI (UACC-62 melanoma) | GI50 (MOLT-4 leukemia) | TGI (MOLT-4 leukemia) | GI50 (RXF 393 renal) | TGI (RXF 393 renal) | GI50 (NCI-H460 lung) | TGI (NCI-H460 lung) | GI50 (HCT-15 colon) | TGI (HCT-15 colon) | GI50 (HL-60(TB) leukemia) | TGI (HL-60(TB) leukemia) | GI50 (ACHN renal) | TGI (ACHN renal) | GI50 (BT-549 breast) | TGI (BT-549 breast) | GI50 (MDA-MB-435) | TGI (MDA-MB-435) | GI50 (SK-MEL-2 melanoma) | TGI (SK-MEL-2 melanoma)
1 | C[As](C)SCC(COC(=O)c1ccccc1)OC(=O)c1ccccc1 (configuration not stated) | 0.156 µM | 1.37 µM | 0.013 µM | 0.154 µM | < 0.0169 µM | 0.0881 µM | 2.21 µM | 12.1 µM | 0.0357 µM | 1.4 µM | 0.0161 µM | 0.1 µM | 0.0369 µM | 0.285 µM | 1.01 µM | 6.4 µM | 0.0191 µM | 0.0664 µM | 0.4 µM | 2.8 µM
2 | N#Cc1ccccc1C#C/C=C\C#Cc1cnccn1 | 14.5 µM | > 89.9 µM | > 24.3 µM | > 100 µM | > 37 µM | > 74.1 µM | 39.4 µM | > 100 µM | 20.6 µM | > 61 µM | 3.23 µM | > 24.1 µM | 32.9 µM | 98.7 µM | 35.4 µM | > 100 µM | 3.14 µM |  | 8.34 µM | > 100 µM
3 | O=C(/C=C/CN1CCCCC1)Nc1cc2c(Nc3ccc(F)c(Cl)c3F)ncnc2cc1OCCOC(F)F | 1.63 µM | 5.11 µM | 1.15 µM | 5.27 µM | 0.497 µM | 2.38 µM | 2.01 µM | 11 µM | 0.633 µM | 3.86 µM | 1.4 µM | 5.68 µM | < 0.01 µM | 1.55 µM | 1.97 µM | 8.62 µM | 1.35 µM | 5.81 µM | 1.85 µM | 4.7 µM
4 | Cc1cccc(NC(=O)c2sc3nc4c(cc3c2N)CCC4)c1C | 0.267 µM | 21 µM | 0.576 µM | > 100 µM | 0.18 µM | 0.669 µM | 0.382 µM | 13.1 µM | 0.264 µM | 21.3 µM | 0.239 µM | 0.864 µM | 0.951 µM | 36.7 µM | 0.443 µM | 23.5 µM | 0.0519 µM | 0.284 µM | 0.31 µM | 17.9 µM
5 | Cn1c(N)c(N=Nc2ccc(S(N)(=O)=O)cc2)c(=O)n(C)c1=O |  | > 100 µM |  | > 100 µM |  | > 100 µM |  | > 100 µM |  | > 100 µM |  | > 100 µM |  | > 100 µM |  | > 100 µM |  | > 100 µM |  | > 100 µM
6 | COc1ccc(C2CC(c3cccc(Nc4ccnc5cc(Cl)ccc45)c3)=NN2c2ccc(Cl)cc2)cc1 (configuration not stated) | 0.601 µM | 13.3 µM | 3.18 µM | 69.5 µM | 17.5 µM | 74.8 µM | 3.04 µM | 17.4 µM | 2.3 µM | 18.7 µM | 4.78 µM | 26.9 µM | 4.63 µM | 90.6 µM | 2.67 µM | 26.6 µM | 0.717 µM | 49.6 µM | 11.5 µM | 38.9 µM
7 | CN1CCN(Cc2ccc(NC(=O)c3cncc(C#Cc4c(N)ncc5ccc(F)cc45)c3)cc2C(F)(F)F)CC1 | 0.64 µM | 1.81 µM | 0.234 µM | 3.03 µM | 0.642 µM | 1.39 µM | 0.647 µM | 3.33 µM | 0.487 µM | 6.85 µM | 0.0758 µM | 1.98 µM | 0.562 µM | 1.27 µM | 2.14 µM | 8.66 µM | 0.18 µM | 0.876 µM | 0.479 µM | 2.55 µM
8 | Cn1cnc2nc(Cl)nc(Cl)c21 | 1.79 µM | 19.7 µM | 5.26 µM | 36.2 µM | 2.39 µM | 7.09 µM | 2.04 µM | 6.12 µM | 2.58 µM | 20.7 µM | 3.16 µM | 8.08 µM | 1.44 µM | 18.5 µM | 10.7 µM | 66.6 µM | 0.445 µM | 13.7 µM | 2.7 µM | 10.2 µM
9 | C=CC(=O)N1CC[C@@H](Oc2nc(Nc3ccc(N4CCC(N5CCN(C)CC5)CC4)cc3)c(C(N)=O)nc2CC)C1 | > 100 µM | > 100 µM | > 100 µM | > 100 µM | > 100 µM | > 100 µM | > 100 µM | > 100 µM | > 100 µM | > 100 µM | > 100 µM | > 100 µM | > 100 µM | > 100 µM | > 100 µM | > 100 µM | > 100 µM | > 100 µM | > 100 µM | > 100 µM
10 | N#Cc1c(-c2ccc(Cl)cc2)n([O-])c2ccccc2[n+]1=O | 17.2 µM | 33.6 µM | 2.31 µM | 4.77 µM | 11 µM | 33.2 µM | 18.5 µM | 42.8 µM | 13.7 µM | 37.5 µM | 3.1 µM | 11.4 µM | 4.2 µM | 16.8 µM | 23.2 µM | 52.3 µM | 13.7 µM | 27 µM | 37.3 µM | > 100 µM
11 | C/C(=C1/N=C(c2ccccc2)OC1=O)c1cccs1 |  | > 100 µM |  | > 100 µM |  | > 100 µM |  | > 100 µM |  | > 100 µM |  | > 100 µM |  | > 100 µM |  | > 100 µM |  | > 100 µM |  | > 100 µM
12 | CCN(CC)CCC(CNc1c2ccc(Cl)cc2nc2ccc(OC)cc12)c1ccccc1 (configuration not stated) | 1.58 µM | 3.06 µM | 0.486 µM | 5 µM | 1.23 µM | 2.68 µM | 0.768 µM | 3.99 µM | 0.902 µM | 4.33 µM | 1.87 µM | 4.71 µM | 1.05 µM | 3.19 µM | 1.97 µM | 3.78 µM | 1.5 µM | 3.09 µM | 1.76 µM | 3.31 µM
13 | CN(C)c1ccc(/C=C/C(=O)c2ccc(Nc3nc(Nc4ccc(F)cc4)nc(Nc4ccc(Cl)cc4)n3)cc2)cc1 | 14 µM | 37.9 µM | 1.55 µM | 5.23 µM | 1.92 µM | 6.1 µM | 3.94 µM | 15.6 µM | 4.66 µM | > 100 µM | 1.75 µM | 5.34 µM | 6.13 µM | > 100 µM | 7.39 µM | 55.7 µM | 3.03 µM | 17.3 µM | 4.6 µM | 18.6 µM
14 | COc1ccc(-c2nccn2-c2cc(OC)c(OC)c(OC)c2)cc1 | 0.675 µM | 24.1 µM | 18.3 µM | > 100 µM | 1.12 µM | 26.6 µM | 1.6 µM | > 100 µM | 1.16 µM | > 100 µM | 25.4 µM | > 100 µM | 6.07 µM | > 100 µM | > 32.1 µM | > 100 µM | 0.222 µM | 3.25 µM | 36.1 µM | > 100 µM
15 | O=C(/C=C\c1ccc(Cl)c(Cl)c1)c1ccccc1 | 9.33 µM | 21.6 µM | 5.36 µM | 40.3 µM | 12.3 µM | 26.6 µM | 15.9 µM | 32.9 µM | 2.84 µM | 10.3 µM | 5.46 µM | 29.1 µM | 7.65 µM | 20.5 µM | 9.85 µM | 22 µM | 4.48 µM | 16.7 µM | 13.8 µM | 27.4 µM
16 | CCOC(=O)C(Cc1ccc(N(CCCl)CCCl)cc1)NC(=O)C(CC(C)C)NC(C)=O (configuration not stated) | 0.659 µM | 2.19 µM | 0.302 µM | 2.4 µM | 0.944 µM | 2.3 µM | 0.0763 µM | 1.54 µM | 2.22 µM | > 27.8 µM | 0.304 µM | 1.9 µM | 0.173 µM | 1.42 µM | 7.07 µM | 21.7 µM | 1.43 µM | 3.25 µM | 2.61 µM | 5.13 µM
17 | CC(=O)OC1C(OC/C2=C/C3[C@@H](C(C)C)CC=C(C)[C@@H]3CC(OC(=O)/C=C/c3cn(C)cn3)[C@]3(C)C=C[C@@]2(O)O3)OCC(O)C1O (some centres not stated) | 0.0242 µM | > 50 µM | 0.0415 µM | > 50 µM | 0.0149 µM | 0.0741 µM | 0.00928 µM |  | 1.2 µM | > 50 µM | 0.0164 µM | 1.51 µM | 0.381 µM | > 50 µM | 0.0129 µM | 0.136 µM | 0.00626 µM | 0.0208 µM | 0.0199 µM | 
18 | C=C1C(=O)O[C@H]2[C@H]1CC/C(Cn1cc(CNC(=O)c3cc4ccccc4[nH]3)nn1)=C\CC[C@@]1(C)O[C@@H]21 | 1.57 µM | 3.33 µM | 2.71 µM | 7.15 µM | 2.16 µM | 4.28 µM | 20.1 µM | 41 µM | 10.2 µM | 27.4 µM | 2.45 µM | 5.79 µM | 4.73 µM | 17.2 µM | 4.09 µM | 16.5 µM | 2.82 µM | 9.7 µM | 6.43 µM | 23 µM
19 | CC(CCC/C=C/CCCN(C)C(=N)N)CC(C)C1OC(=O)C(C)C(O)/C=C/C(C)C(O)C(C)C(O)C(C)C(O)CCCC(O)CC2(O)OC(CC(OC(=O)CC(=O)O)CC(O)CC(O)C(C)C(O)/C=C/C=C/C1C)CC(O)C2O (configuration not stated) | 2.13 µM and 8.05 µg/mL | 4.52 µM and 19.1 µg/mL | 2.78 µM and 11.1 µg/mL | 5.88 µM and 28.4 µg/mL | 1.98 µM and 1.89 µg/mL | 3.71 µM and 4.59 µg/mL | 2.09 µM and 3.95 µg/mL | 3.95 µM and 14.5 µg/mL | 2.35 µM and 11.9 µg/mL | 5.33 µM and 28.9 µg/mL | 6.5 µg/mL | 21.2 µg/mL | 2 µM and 5.72 µg/mL | 4.31 µM and 20.6 µg/mL | 2.19 µM and 3.16 µg/mL | 4.03 µM and 12 µg/mL | 1.9 µM and 2.45 µg/mL | 4.39 µM and 9.24 µg/mL | 7.22 µM and 10.2 µg/mL | 23 µM and 20.5 µg/mL
